5 compounds from ChEMBL document CHEMBL1201862, “PubChem BioAssay data set” (2004) can be followed below.

Test [1] deals with Vero. Kind of test: mammalian cell viability reduction – secondary assay, cytotoxicity control for West Nile virus antiviral project, dose response (AID 1650). Type of test: functional. To be noted: Chlorocebus sabaeus.
Test [2] relates to Vero. Kind of test: inhibition of WNV-induced cytopathic effect – cell-based, CPE readout (AID 1621). Type of test: functional. To be noted: Chlorocebus sabaeus. On the technique in general: Protection from cytopathic effect is a common read-out in antiviral testing.
Test [3] in a line: NIH3T3 cell viability loss – ATP luminescence, mouse fibroblasts, counter-screen, dose response (AID 2010).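 Note: cells exposed to compound for about 90 hours before reading.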 It is filed as functional, cell-based. (A counterscreen serves to expose hits that act by an unwanted route or on another target.)
Test [4] can be described thus: cells.
The nature of test [5]: Trypanosoma cruzi growth suppression in host cells – NIH3T3 host cells, beta-gal luminescence, confirmation (AID 2044).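 Note: intracellular parasites grown in NIH/3T3 mouse fibroblasts as host cells; luminescent beta-galactosidase reporter signal from transgenic T. cruzi replicating inside host cells; inhibitors lower the luminescence signal.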 Type of test: functional, cell-based.
In test [6] the target is T1, Bcl-2-related protein A1 (Mus musculus, UniProt Q07440).
T1 sequence (Q07440 whole entry): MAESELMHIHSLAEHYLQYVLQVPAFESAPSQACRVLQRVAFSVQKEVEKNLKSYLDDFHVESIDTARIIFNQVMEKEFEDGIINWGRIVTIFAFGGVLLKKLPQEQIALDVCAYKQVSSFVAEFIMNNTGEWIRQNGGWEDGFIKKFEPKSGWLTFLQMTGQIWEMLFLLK
The test is described as follows: displacement of Bid BH3 peptide from Bfl-1 – biochemical, fluorescence polarization, FITC-Bid, mouse, primary screen (AID 432). Background: Fluorescence polarisation rises when a labelled molecule tumbles more slowly, as on binding a larger partner.

Test [7] concerns the target T1, Bcl-2-related protein A1. Kind of test: small-molecule antagonists of Bfl-1/BH3 interaction – biochemical, TR-FRET, mouse Bfl-1, confirmation (AID 621).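 Note: TR-FRET binding of GST-Bfl-1 to FITC-labelled Bid peptide via terbium antibody.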
For test [8], the target named is T2, Dual specificity protein phosphatase 6 (Rattus norvegicus, UniProt Q64346).
T2 sequence (Q64346 whole entry): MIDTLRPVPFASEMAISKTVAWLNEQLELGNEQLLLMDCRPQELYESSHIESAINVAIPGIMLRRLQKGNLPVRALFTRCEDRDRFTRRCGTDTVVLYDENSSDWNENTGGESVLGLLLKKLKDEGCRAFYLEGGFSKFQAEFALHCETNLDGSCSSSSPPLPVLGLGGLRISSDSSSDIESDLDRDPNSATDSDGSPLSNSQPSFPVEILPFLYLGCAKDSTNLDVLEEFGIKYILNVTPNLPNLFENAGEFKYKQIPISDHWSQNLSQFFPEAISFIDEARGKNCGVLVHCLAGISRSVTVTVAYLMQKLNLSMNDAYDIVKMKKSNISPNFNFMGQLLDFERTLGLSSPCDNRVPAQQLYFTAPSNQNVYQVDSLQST
The test is described as follows: inhibition of rat DUSP6 enzyme activity – biochemical, in vitro, primary screen (AID 425).

The nature of test [9]: non-specific 3'UTR reporter inhibition in Clone20-Shn3RL – cell-based, Renilla luciferase, cherry-picked, counter-screen for Shn3 inhibitor project, dose response (AID 624133). Type of test: functional.
The target in test [10] is Nucleotide-binding oligomerization domain-containing protein 2 (Homo sapiens, UniProt Q9HC29). The test is described as follows: inhibition of NOD2-driven NF-kB reporter – cell-based, luminescence, uHTS, HEK293 (AID 1566). It is filed as functional.
The test system of test [11] is HEK293. Kind of test: EBV LMP1 TES2 canonical NF-kB signalling blockers – cell-based, HEK293, luciferase, cherry-pick, dose response (AID 588343). Type of test: functional. To be noted: Homo sapiens.
In test [12] the test system is HEK293. Kind of test: inhibition of NOD1-driven NF-kB reporter – cell-based, luminescence, uHTS, primary screen (AID 1578). Type of test: functional. The conditions noted are these: Homo sapiens.
Test [13] can be described thus: reduction of Shn3 3'UTR-driven luciferase in osteoblasts – cell-based, Clone20 osteoblasts, firefly luciferase, cherry-picked, dose response (AID 624132).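 Note: firefly luciferase luminescence from reporter carrying the Shn3 3'UTR in osteoblasts.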 Type of test: functional.
The nature of test [14]: loss of viability in HepG2 cells – cell-based, CellTiter-Glo, cherry-picked, cytotoxicity control for Shn3 inhibitor project, dose response (AID 624134). Type of test: functional.
Test [15] is described as follows: Luminescence-based dose response cell-based high throughput screening assay for cytotoxic compounds using the IEC-6 intestinal epithelial cell line. [Related pubchem assays: 1858 (Summary AID.), 1825 (Counterscreen.), 1907 (Confirmation screen.)]. Type of test: functional.
Test [16] deals with BJ. The test is described as follows: BJ-TERT fibroblast viability loss – cell-based, RAS-independent, luminescence, dose response (AID 1933). It is filed as functional. The conditions noted are these: Homo sapiens.
Test [17] relates to HEK293. The test is described as follows: cells. Type of test: functional, cell-based. The conditions noted are these: Homo sapiens.
The nature of test [18]: DRD fibroblast viability loss – cell-based, non-viral oncogenic, luminescence, dose response (AID 1934). It is filed as functional. The conditions noted are these: Homo sapiens.
Test [19] relates to Streptococcus. The test is described as follows: GAS UMAA2166 growth inhibition – luminescence, BacTiterGlo, counter-screen for streptokinase expression inhibitor project, dose response (AID 1915).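 Note: potency for reduction of bacterial viability or growth.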 It is filed as functional, organism-based.
For test [20], the system named is HEK293. The test is described as follows: NOD2 signaling inhibitors in MDP-stimulated cells, cell-based, uHTS, luminescence (AID 2001). It is filed as functional. To be noted: Homo sapiens.
For test [21], the system named is HEK293. Kind of test: cells. Type of test: functional, cell-based. To be noted: Homo sapiens. The source holds these as a separate data set.
The test system of test [22] is BJ. Kind of test: cells. It is filed as functional, cell-based. To be noted: Homo sapiens.
Test [23] is described as follows: cells. Type of test: functional, cell-based.
Test [24] relates to HEK293. Kind of test: cells. It is filed as functional, cell-based. The conditions noted are these: Homo sapiens. The source holds these as a separate data set.
The subject of test [25] is BJ. The test is described as follows: BJ-TERT-LT-ST fibroblast viability loss – cell-based, RAS-independent, luminescence, dose response (AID 1935).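 Note: BJ fibroblasts immortalized with TERT plus LT and ST oncogenes.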 Type of test: functional. The conditions noted are these: Homo sapiens.
Test [26] relates to Streptococcus sp. 'group A'. Kind of test: Streptococcus pyogenes SK(-)GAS viability under kanamycin – luminescence, BacTiterGlo, confirmation, counter-screen for streptokinase expression inhibitor project, dose response (AID 1900). It is filed as functional, organism-based.
Test [27] is described as follows: cells. Type of test: functional, cell-based. The source holds these as a separate data set.
In test [28] the test system is Danio rerio. The test is described as follows: In Vivo Angiogenesis Dose-Response Confirmation. [Related pubchem assays: 732 (Assay preceding this confirmatory assay.)]. It is filed as functional, organism-based.
Test [29] addresses T3, High affinity choline transporter 1 (Homo sapiens, UniProt Q9GZV3).
T3 sequence (Q9GZV3 whole entry): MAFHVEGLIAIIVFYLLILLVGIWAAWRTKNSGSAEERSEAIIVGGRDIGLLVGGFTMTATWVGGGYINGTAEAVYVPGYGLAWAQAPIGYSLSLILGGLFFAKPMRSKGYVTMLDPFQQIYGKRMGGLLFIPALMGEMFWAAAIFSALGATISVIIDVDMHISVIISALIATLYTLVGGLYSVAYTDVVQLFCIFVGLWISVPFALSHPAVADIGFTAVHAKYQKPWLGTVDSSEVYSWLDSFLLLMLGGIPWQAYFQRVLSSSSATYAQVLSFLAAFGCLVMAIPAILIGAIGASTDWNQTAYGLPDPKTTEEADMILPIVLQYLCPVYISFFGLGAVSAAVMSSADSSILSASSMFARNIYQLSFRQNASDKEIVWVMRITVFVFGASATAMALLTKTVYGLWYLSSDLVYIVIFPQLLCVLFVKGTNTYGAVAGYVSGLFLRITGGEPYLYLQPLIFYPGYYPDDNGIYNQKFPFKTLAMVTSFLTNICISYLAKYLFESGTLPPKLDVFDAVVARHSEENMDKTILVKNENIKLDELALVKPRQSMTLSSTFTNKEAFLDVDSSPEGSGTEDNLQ
Kind of test: human choline transporter blockers, potency – cell-based, 5-point CRC, membrane potential dye, dose response (AID 504840). Type of test: functional.

The structures appear in SMILES notation. Active and inactive are the calls of the source.

Chain of Nucleotide-binding oligomerization domain-containing protein 2 (Q9HC29 whole entry, the tested form may be a part): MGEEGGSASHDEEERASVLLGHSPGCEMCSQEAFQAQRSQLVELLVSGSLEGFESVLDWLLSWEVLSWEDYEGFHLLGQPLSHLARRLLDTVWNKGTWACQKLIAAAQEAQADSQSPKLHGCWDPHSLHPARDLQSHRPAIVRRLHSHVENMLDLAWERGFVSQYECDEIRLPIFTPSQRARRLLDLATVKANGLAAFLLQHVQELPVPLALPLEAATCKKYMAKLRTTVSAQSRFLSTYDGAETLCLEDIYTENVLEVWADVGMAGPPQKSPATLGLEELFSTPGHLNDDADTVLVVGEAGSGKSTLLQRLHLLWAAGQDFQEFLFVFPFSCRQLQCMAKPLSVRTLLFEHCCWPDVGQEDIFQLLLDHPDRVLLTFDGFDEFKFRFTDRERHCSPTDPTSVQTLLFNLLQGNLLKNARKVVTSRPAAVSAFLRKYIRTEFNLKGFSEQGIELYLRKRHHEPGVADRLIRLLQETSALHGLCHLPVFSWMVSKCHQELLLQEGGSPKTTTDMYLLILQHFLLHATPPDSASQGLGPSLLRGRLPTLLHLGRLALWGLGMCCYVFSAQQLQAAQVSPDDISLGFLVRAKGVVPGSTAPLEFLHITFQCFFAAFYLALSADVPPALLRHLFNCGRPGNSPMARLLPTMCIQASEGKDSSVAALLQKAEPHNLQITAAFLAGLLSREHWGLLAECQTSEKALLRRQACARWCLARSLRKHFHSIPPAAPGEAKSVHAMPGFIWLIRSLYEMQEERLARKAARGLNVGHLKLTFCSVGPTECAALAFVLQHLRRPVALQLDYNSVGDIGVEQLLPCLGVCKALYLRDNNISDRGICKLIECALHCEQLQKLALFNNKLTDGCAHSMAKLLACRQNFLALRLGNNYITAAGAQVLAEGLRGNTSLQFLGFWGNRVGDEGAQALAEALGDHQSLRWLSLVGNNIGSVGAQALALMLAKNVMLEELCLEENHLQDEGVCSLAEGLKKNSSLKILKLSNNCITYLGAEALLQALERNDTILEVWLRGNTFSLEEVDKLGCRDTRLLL

Consider `CN(C)CCCNC(=O)c1cc2sc3ccccc3c2s1`, for which, in [1], the cytotoxic concentration (CC50) (commonly the concentration at which the toxic effect on the cells reaches its halfway point) is 14.6 µM (active). Moreover, the half-inhibitory concentration (IC50) (in general, the midpoint of a concentration-inhibition curve) in test [2] was 21.4 µM (active).
Turning to `O=C1NC(=O)N(C2CCCCCC2)C(=O)/C1=C/NC1CCN(Cc2ccccc2)CC1`, the EC50 (commonly the concentration needed to bring the measured effect to its halfway point) was 23.5 µM (active) in [3], 0.361 µM (active) in test [4] and < 0.1 µM (active) in [5].
`N#Cc1c(N)sc(=S)c2c1CCN(Cc1ccccc1)C2`: the half-maximal inhibitory concentration (IC50) is > 100 µM (not active) in test [6], > 100 µM (not active) in [7] and 10.8 µM (active) in [8].
With `CC(=O)NC(c1ccc(Cl)cc1Cl)c1ccc2cccnc2c1O` (stereo unspecified), the AC50 (usually the concentration at which the activity in the assay is half-maximal) in test [9] is 0.778 µM (active); in [11], 4.24 µM (active); in [13], 0.465 µM (active); in [14], 0.764 µM (active). Also, the EC50 in [10] is > 20 µM (inactive); in test [12], > 20 µM (inactive); in test [3], 0.192 µM (active); in [16], 0.837 µM (active); in [18], 0.95 µM (active); in [19] it was 6.93 µM (active). In addition, the EC50 in test [22] is 6.93 µM (active); in test [23], > 350 µM (not active); in test [25], 2.82 µM (inconclusive); in test [26], 4.98 µM (active); in [5], 0.163 µM (active); in [27] it was 4.6 µM (active). Besides, the IC50 is 0.386 µM (active) in test [15]; 12 µM (active) in test [17]; > 20 µM (inactive) in test [20]; > 20 µM (inactive) in [21]; > 20 µM (inactive) in test [24].
As to `C[N+](C)(C)CCOC(=O)CBr` [E1001], the values for the half-inhibitory concentration (IC50) in [28] and in [29] were 31.6 µM (not active) and 14.1 µM (active), respectively.
